What was measured:
Aerobic bacteria = experiment: Culturable aerobic bacterial count in pulp; assay type: cell-based
Description: (§1) Short-term and long-term effect of biocides on cellulase activity of process samples was tested with laboratory incubations of recycled fiber (RCF) pulp samples at 40° C.
(§2) 50 g liner board was re-pulped with process water from a mill using recycled fiber. The final consistency of the pulp was 1.0% and the liner was from a mill using ~50% unbleached kraft pulp and ~50% recycled fiber. This mill uses about 6 kg/ton wet-end starch in the production of the liner. The pulp suspension was divided into 12 bottles. Six of the bottles were put into an incubator with no other treatment. The other 6 bottles were first pasteurized (1 h, +80° C.) in order to inactivate any enzymes present. After that, the bottles were treated with a combination of a biocide (Mixture of DBNPA, bronopol and CMIT/MIT, 100 mg/l as active substance) and either zinc or zinc comprising compound (25 mg/l as Zn^2+). After this, all 12 bottles were kept at +40° C. with shaking for 3 days. At the beginning of the incubation, the pH of the pulp was 6.64, redox+160 mV and conductivity 5.46 mS/cm.
50 g liner board (from two different mills: 50% from a mill using ~50% unbleached kraft pulp and ~50% recycled fiber and 50% from a mill using 100% recycled fiber) was re-pulped with process water from a third mill using recycled fiber. The final consistency of the pulp was 1.0%. The pulp suspension was divided into 12 bottles and starch suspension (native potato starch) was added into each bottle, so that the concentration of added starch was 1.5 g/l. Six of the bottles (numbers 1-6) were put into an incubator with no other treatment. The other 6 bottles (numbers 7-12) were first pasteurized (1 h, +80° C.) in order to inactivate any enzymes present. After that, the bottles were treated with a biocide (50 mg/l monochloramine, as active chlorine). […] At the beginning of the incubation, the pH of the pulp was 6.0, redox −46 mV and conductivity 4.8 mS/cm.

ATP = ATP measured from pulp bottles; assay type: cell-based; settings: after 2 d
Description: 50 g liner board (from two different mills: 50% from a mill using ~50% unbleached kraft pulp and ~50% recycled fiber and 50% from a mill using 100% recycled fiber) was re-pulped with process water from a third mill using recycled fiber. The final consistency of the pulp was 1.0%. The pulp suspension was divided into 12 bottles and starch suspension (native potato starch) was added into each bottle, so that the concentration of added starch was 1.5 g/l. Six of the bottles (numbers 1-6) were put into an incubator with no other treatment. The other 6 bottles (numbers 7-12) were first pasteurized (1 h, +80° C.) in order to inactivate any enzymes present. After that, the bottles were treated with a biocide (50 mg/l monochloramine, as active chlorine). After this, all 12 bottles were kept at +40° C. with shaking for 4 days. During the incubation, 10 mg/l monochloramine was added daily into the bottles 7-12). At the beginning of the incubation, the pH of the pulp was 6.0, redox −46 mV and conductivity 4.8 mS/cm.
After 2 d, ATP was measured from each bottle and was 1000-fold higher in non-treated than treated bottles (average 71 000 pg/ml, st.dev. 3800, vs. average 70, st.dev. 7 pg/ml, respectively).

Anaerobic bacteria = experiment: Anaerobic bacterial count in pulp; assay type: cell-based; settings: pasteurized 1 h +80° C., 50 mg/l monochloramine then 10 mg/l daily, 4 d at +40° C., n = 6
Description: as §2
After 3 d pH, ORP, and total and cellulolytic bacterial amounts were measured from each bottle.
50 g liner board (from two different mills: 50% from a mill using ~50% unbleached kraft pulp and ~50% recycled fiber and 50% from a mill using 100% recycled fiber) was re-pulped with process water from a third mill using recycled fiber. The final consistency of the pulp was 1.0%. […]
After 4 d pH, ORP, bacterial amounts and cellulase activity were measured from each bottle.

cellulase = experiment: Cellulase activity of RCF pulp samples, Enzchek Cellulase substrate; assay type: biochemical
Description: Cellulase activity expressed here as “mU/ml” may be obtained using Enzchek Cellulase substrate (Life Technologies, part of Thermo Fisher Scientific), using the manufacturer's instructions and measurement protocol where sodium acetate buffer is adjusted to pH 6.0 and the samples are diluted 1/10 to minimize inhibition and quenching by fibers.
For example, in soil research microbial cellulolytic potential can be tested with agar plate cultivation, but there are also commercially available substrates for measurement of cellulase activity directly from aqueous samples (cellulase production organism cultivation broths/extracts).
According to the supplier, the assay limit of detection is ~110% of the signal for blank (buffer instead of sample). In addition, standard curve was measured as recommended with Trichoderma mold cellulase (at recommended pH 5.0), but in addition also with Bacillus amyloliquefaciens cellulase (Megazyme; at recommended pH 6.0). Both gave near-linear standard curve with good sensitivity.
as §1

[1] = RCF pulp, MCA Day 1 50 mg/l, Day 2 and 3 10 mg/l, Days 4-8 no addition
[2] = pasteurized 1 h +80° C., 50 mg/l monochloramine then 10 mg/l daily, 4 d at +40° C., n = 6

## NCl [MCA, monochloramine]
Aerobic bacteria; 3-day experiment, daily dosages of MCA
  reduction of total CFUs: 5 orders of magnitude
Aerobic bacteria; RCF pulp, MCA Day 1 50 mg/l, Day 2 and 3 10 mg/l
  Aerobic bacteria, 3 d, cfu/ml: 6000 cfu/ml
Aerobic bacteria; [1]
  Aerobic bacteria, 6 d, cfu/ml: 30 000 000 cfu/ml
Aerobic bacteria; [2]
  Aerobic bacteria, Average: 8 700 cfu, ml
ATP
  ATP higher in non-treated than treated bottles: 1000 fold
ATP; treated bottles, 50 mg/l monochloramine then 10 mg/l daily, +40° C.
  ATP, average: 70 pg/mL
Anaerobic bacteria
  Anaerobic bacteria, Average: 970 cfu/ml
cellulase; 5 d after the last biocide dosage, corresponding to 134% of the blank
  cellulase activity in process sample: ~ 0.2 mU/ml
cellulase; [1]
  Cellulase activity at 7 d, % compared to blank: 134%
cellulase; [2]
  Cellulase activity, Average: 0.44 mU/ml

Reference: patent US12686971B2, “Method of controlling enzymatic activities and tools related thereto” (KEMIRA OYJ, priority 2020, dated 2026)
